Experimental data as given in US20200008426A1, “ACTIVE COMPOUND COMBINATIONS” (BAYER AKTIENGESELLSCHAFT, priority 2017, published 2020).
Values joined by “and” are separate entries in the source; they are usually repeats but may differ in a detail not shown here. Equal entries are not always repeated.

Tests used:
Septoria tritici [1] = assay: In vitro-Test with Septoria tritici; format: cell-based; settings: compound alone
Alternaria alternata = assay: In vitro-Test with Alternaria alternata; format: cell-based
Venturia inaequalis = assay: In vivo preventive test on Venturia (apples); settings: 10 days after inoculation
Description: The test is evaluated 10 days after the inoculation.

Septoria tritici [2] = assay: In vivo preventive Septoria tritici test (wheat); settings: 21 days after inoculation
Description: After the spray coating has been dried, the plants are sprayed with a spore suspension of Septoria tritici.
The test is evaluated 21 days after the inoculation.

Sphaerotheca fuliginea = assay: In vivo preventive test on Sphaerotheca (cucumbers); settings: Table D1, 7 days after inoculation
Puccinia triticina = assay: In vivo preventive Puccinia triticina test (wheat); settings: 8 days after inoculation
Description: After the spray coating has been dried, the plants are sprayed with a spore suspension of Puccinia triticina.
(§1) The test is evaluated 8 days after the inoculation.

[3] = test system: fish (Danio rerio) embryos; assay: In vivo ecotoxicity screening test on fish (Danio rerio); settings: active compound alone; fish embryos, 96 h, 28.5° C.
Description: with ECxi the Effect Concentration (EC) of each chemical i (in ppm) causing x % effect on the ecotoxicity test endpoint.
For each compound combination, the predicted ECx value is calculated. It is then compared to an experimentally measured value. The ratio of predicted versus measured effect for the combination (thereafter called the Model Deviation Ratio or MDR) is then calculated.
The environmental effect of the compound combinations was measured experimentally in laboratory ecotoxicity screening studies with fish (Danio rerio). […] Mortality was recorded after 96 h for each tested concentration and a reference control. […] Then, the MDR values were calculated.
• Solvent: 0.5% by weight dimethyl sulfoxide
This concentrate is then diluted with water to the desired a.i. concentration, leading to a maximal solvent concentration of 0.5% by weight. The compounds alone and the combinations were tested for five increasing concentrations between 0.01 and 1000 ppm a.i., (e.g. 0.1, 1.0, 10 and 100 ppm a.i). For the combinations, compounds A and B were mixed in a weight ratio of 5:1 to 1:5 and five increasing concentrations were tested for each ratio.

Fusarium culmorum = assay: In vitro-Test with Fusarium culmorum; format: cell-based; settings: 0.2 ppm
Ustilago avenae = assay: In vitro-Test with Ustilago avenae; format: cell-based; settings: compound alone
Pyrenophora teres = assay: In vitro-Test with Pyrenophora teres; format: cell-based
Botrytis cinerea = assay: In vitro-Test with Botrytis cinerea; format: cell-based
[4] = test system: Blumeria graminis f.sp. hordei; assay: In vivo preventive Blumeria test (barley); settings: 7 days after inoculation
Pyricularia oryzae = format: cell-based; settings: 5 ppm
Leptosphaeria nodorum = assay: In vivo preventive Leptosphaeria nodorum test (wheat); settings: Table G1, 8 days after inoculation
Description: After the spray coating has been dried, the plants are sprayed with a spore suspension of Leptosphaeria nodorum.
as §1

Phakopsora pachyrhizi = assay: In vivo preventive test on Phakopsora (soybeans); settings: Table C3, 7 days after inoculation
Rhizoctonia solani = assay: In vitro-Test with Rhizoctonia solani; format: cell-based; settings: compound alone

CC(C)(C)[C@@H](O)[C@@H](Cc1ccc(Cl)cc1)n1cncn1 (racemic) [Example 1.015, paclobutrazol]
Efficacy % (Septoria tritici [1]; 1 ppm): 13% | Efficacy % (Alternaria alternata; 1 ppm): 0%

OC(Cc1ccccc1Cl)(Cn1nc[nH]c1=S)C1(Cl)CC1 (centres unmarked) [Example 1.018, prothioconazole]
Efficacy in % found (Venturia inaequalis; Table E1, 2.5 ppm a.i.): 0% | Efficacy in % found (Venturia inaequalis; Table E1, 5 ppm a.i.): 30% | Efficacy in % found (Venturia inaequalis; Table E1, 10 ppm a.i.): 61% | Efficacy in % found (Septoria tritici [2]; 25 ppm a.i.): 0% | Efficacy in % found (Septoria tritici [2]; 50 ppm a.i.): 14% | Efficacy in % found (Septoria tritici [2]; 100 ppm a.i.): 43% | Efficacy % (Alternaria alternata; 0.04 ppm): 0% | Efficacy % (Alternaria alternata; 0.2 ppm): 91% | Efficacy in % found (Sphaerotheca fuliginea; 2.5 ppm a.i.): 71% | Efficacy in % found (Sphaerotheca fuliginea; 5 ppm a.i.): 96% | Efficacy in % found (Sphaerotheca fuliginea; 10 ppm a.i.): 100% | Efficacy in % found (Puccinia triticina; 25 ppm a.i.): 0% | Efficacy in % found (Puccinia triticina; 50 ppm a.i.): 0% | Efficacy in % found (Puccinia triticina; 100 ppm a.i.): 0% | Efficacy in % found (Puccinia triticina; Table H1, 25 ppm a.i.): 0% | Efficacy in % found (Puccinia triticina; Table H1, 50 ppm a.i.): 0% | Efficacy in % found (Puccinia triticina; Table H1, 100 ppm a.i.): 0% | Ecotoxicity LC50-96 h found [3]: 3.16 ppm a.i. | Efficacy % (Fusarium culmorum): 99% | Efficacy % (Ustilago avenae; 1 ppm): 85% | Efficacy % (Ustilago avenae; 5 ppm): 100% | Efficacy % (Pyrenophora teres; 0.2 ppm): 22%

CCCN(CC)CC1COC2(CCC(C(C)(C)C)CC2)O1 (centres unmarked) [Example 1.020, spiroxamine]
Efficacy % (Septoria tritici [1]; 0.8 ppm): 25% | Efficacy % (Septoria tritici [1]; 4 ppm): 34% | Efficacy in % found (Venturia inaequalis; Table E1, 25 ppm a.i.): 0% | Efficacy in % found (Venturia inaequalis; Table E1, 50 ppm a.i.): 0% | Efficacy in % found (Venturia inaequalis; Table E1, 100 ppm a.i.): 14% | pest or weed control at 62.5 ppm (Septoria tritici [2]; Zymoseptoria tritici, 504 h, 62.5 ppm a.i., read-out: Efficacy in % found): 0% | pest or weed control at 125 ppm (Septoria tritici [2]; Zymoseptoria tritici, 504 h, 125 ppm a.i., read-out: Efficacy in % found): 14% | pest or weed control at 250 ppm (Septoria tritici [2]; Zymoseptoria tritici, 504 h, 250 ppm a.i., read-out: Efficacy in % found): 57% | Efficacy in % found (Sphaerotheca fuliginea; 25 ppm a.i.): 31% | Efficacy in % found (Sphaerotheca fuliginea; 50 ppm a.i.): 37% | Efficacy in % found (Sphaerotheca fuliginea; 100 ppm a.i.): 49% | Efficacy % (Botrytis cinerea; 4 ppm): 7% | Efficacy % (Botrytis cinerea; 20 ppm): 9% | pest or weed control at 62.5 ppm (Puccinia triticina; Puccinia triticina, 192 h, 62.5 ppm a.i., read-out: Efficacy in % found): 11% | pest or weed control at 125 ppm (Puccinia triticina; Puccinia triticina, 192 h, 125 ppm a.i., read-out: Efficacy in % found): 33% | pest or weed control at 250 ppm (Puccinia triticina; Puccinia triticina, 192 h, 250 ppm a.i., read-out: Efficacy in % found): 33% | Ecotoxicity LC50-96 h found [3]: 14.81 ppm a.i. | Efficacy % (Ustilago avenae; 20 ppm): 12% | Efficacy % (Ustilago avenae; 100 ppm): 100% | Efficacy in % found ([4]; Table F2, 62.5 ppm a.i.): 33% | Efficacy in % found ([4]; Table F2, 125 ppm a.i.): 89% | Efficacy in % found ([4]; Table F2, 250 ppm a.i.): 100%

Cn1cc(C(=O)Nc2ccc(F)cc2-c2ccc(Cl)c(Cl)c2)c(C(F)F)n1 [Example 2.002, bixafen]
Efficacy % (Alternaria alternata; 0.04 ppm): 55% | Efficacy % (Alternaria alternata; 0.2 ppm): 84% and 57% | Efficacy % (Alternaria alternata; 1 ppm): 88% | Efficacy % (Botrytis cinerea; 1 ppm): 63% | Efficacy % (Botrytis cinerea; 5 ppm): 91% | Efficacy in % found (Puccinia triticina; Table H1, 25 ppm a.i.): 22% | Efficacy in % found (Puccinia triticina; Table H1, 50 ppm a.i.): 33% | Efficacy in % found (Puccinia triticina; Table H1, 100 ppm a.i.): 67% | Ecotoxicity LC50-96 h found [3]: 0.154 ppm a.i. | Efficacy % (Pyrenophora teres; 0.2 ppm): 46% | Efficacy % (Pyrenophora teres; 1 ppm): 60% | Efficacy % (Pyrenophora teres; 5 ppm): 72%

O=C(NCCc1ncc(C(F)(F)F)cc1Cl)c1ccccc1C(F)(F)F [Example 2.005, fluopyram]
Efficacy % (Septoria tritici [1]; 0.04 ppm): 43% and 22% | Efficacy % (Septoria tritici [1]; 0.2 ppm): 93% and 67% | Efficacy in % found (Septoria tritici [2]; 30 ppm a.i.): 38% and 29% | Efficacy in % found (Septoria tritici [2]; 60 ppm a.i.): 88% and 71% | Efficacy in % found (Puccinia triticina; 15 ppm a.i.): 0% | Efficacy in % found (Puccinia triticina; 30 ppm a.i.): 0% | Efficacy in % found (Puccinia triticina; 60 ppm a.i.): 0% | Efficacy in % found (Puccinia triticina; Table H1, 15 ppm a.i.): 0% | Efficacy in % found (Puccinia triticina; Table H1, 30 ppm a.i.): 0% | Efficacy in % found (Puccinia triticina; Table H1, 60 ppm a.i.): 33% | Ecotoxicity LC50-96 h found [3]: >200 ppm a.i. | Efficacy % (Ustilago avenae; 5 ppm): 0% | Efficacy in % found ([4]; Table F1, 15 ppm a.i.): 0% | Efficacy in % found ([4]; Table F1, 30 ppm a.i.): 0% | Efficacy in % found ([4]; Table F1, 60 ppm a.i.): 29%

CON=C(C(=O)OC)c1ccccc1CON=C(C)c1cccc(C(F)(F)F)c1 [Example 3.020, trifloxystrobin]
Efficacy % (Septoria tritici [1]; 5 ppm): 90% | pest or weed control at 2.5 ppm (Septoria tritici [2]; Zymoseptoria tritici, 504 h, 2.5 ppm a.i., read-out: Efficacy in % found): 29% | pest or weed control at 5 ppm (Septoria tritici [2]; Zymoseptoria tritici, 504 h, 5 ppm a.i., read-out: Efficacy in % found): 29% | pest or weed control at 10 ppm (Septoria tritici [2]; Zymoseptoria tritici, 504 h, 10 ppm a.i., read-out: Efficacy in % found): 29% | Efficacy % (Pyricularia oryzae): 98% | pest or weed control at 2.5 ppm (Puccinia triticina; Puccinia triticina, 192 h, Table H1, 2.5 ppm a.i., read-out: Efficacy in % found): 0% | pest or weed control at 5 ppm (Puccinia triticina; Puccinia triticina, 192 h, Table H1, 5 ppm a.i., read-out: Efficacy in % found): 0% | pest or weed control at 10 ppm (Puccinia triticina; Puccinia triticina, 192 h, Table H1, 10 ppm a.i., read-out: Efficacy in % found): 11% | Ecotoxicity LC50-96 h found [3]: 0.24 ppm a.i. | Efficacy % (Pyrenophora teres; 5 ppm): 6%

O=C(Nc1ccccc1)N(Cc1ccc(Cl)cc1)C1CCCC1 [Example 4.005, pencycuron]
Efficacy % (Septoria tritici [1]; 20 ppm): 8% | Efficacy % (Septoria tritici [1]; 100 ppm): 0% | Efficacy in % found (Venturia inaequalis; Table E1, 25 ppm a.i.): 0% | Efficacy in % found (Venturia inaequalis; Table E1, 50 ppm a.i.): 0% | Efficacy in % found (Venturia inaequalis; Table E1, 100 ppm a.i.): 4% | Efficacy in % found (Septoria tritici [2]; 62.5 ppm a.i.): 0% | Efficacy in % found (Septoria tritici [2]; 125 ppm a.i.): 0% | Efficacy in % found (Septoria tritici [2]; 250 ppm a.i.): 0% | Efficacy in % found (Puccinia triticina; 62.5 ppm a.i.): 0% | Ecotoxicity LC50-96 h found [3]: >200 ppm a.i. | Efficacy % (Pyrenophora teres; 20 ppm): 17% | Efficacy % (Pyrenophora teres; 100 ppm): 5% | Efficacy in % found (Leptosphaeria nodorum; 62.5 ppm a.i.): 14% | Efficacy in % found (Leptosphaeria nodorum; 125 ppm a.i.): 14% | Efficacy in % found (Leptosphaeria nodorum; 250 ppm a.i.): 29%

CCCOc1nc2ccc(I)cc2c(=O)n1CCC [Example 13.004, proquinazid]
Efficacy % (Septoria tritici [1]; 20 ppm): 55% | Efficacy % (Septoria tritici [1]; 100 ppm): 28% | Efficacy in % found (Venturia inaequalis; Table E1, 12.5 ppm a.i.): 0% | Efficacy in % found (Venturia inaequalis; Table E1, 25 ppm a.i.): 0% | Efficacy in % found (Venturia inaequalis; Table E1, 50 ppm a.i.): 0% | Efficacy in % found (Septoria tritici [2]; 250 ppm a.i.): 0% | Efficacy in % found (Septoria tritici [2]; 500 ppm a.i.): 0% | Efficacy in % found (Septoria tritici [2]; 1000 ppm a.i.): 0% | Efficacy % (Alternaria alternata; 0.8 ppm): 0% | Efficacy % (Alternaria alternata; 4 ppm): 0% | Ecotoxicity LC50-96 h found [3]: 9.89 ppm a.i. | Efficacy in % found (Leptosphaeria nodorum; 250 ppm a.i.): 0% | Efficacy in % found (Leptosphaeria nodorum; 500 ppm a.i.): 14% | Efficacy in % found (Leptosphaeria nodorum; 1000 ppm a.i.): 14%

mancozeb [Example 5.013]
Efficacy in % found (Venturia inaequalis; Table E2, 12.5 ppm a.i.): 0% | Efficacy in % found (Venturia inaequalis; Table E2, 25 ppm a.i.): 18% | Efficacy in % found (Venturia inaequalis; Table E2, 50 ppm a.i.): 95% | Efficacy in % found (Septoria tritici [2]; 250 ppm a.i.): 29% | Efficacy in % found (Septoria tritici [2]; 500 ppm a.i.): 29% | Efficacy in % found (Septoria tritici [2]; 1000 ppm a.i.): 29% | Efficacy in % found (Phakopsora pachyrhizi; 12.5 ppm a.i.): 23% | Efficacy in % found (Phakopsora pachyrhizi; 25 ppm a.i.): 45% | Efficacy in % found (Phakopsora pachyrhizi; 50 ppm a.i.): 90% | Efficacy % (Rhizoctonia solani; 4 ppm): 57% | Efficacy % (Rhizoctonia solani; 20 ppm): 99% | Efficacy % (Pyrenophora teres; 20 ppm): 81% | Efficacy % (Pyrenophora teres; 100 ppm): 83% | Efficacy in % found (Leptosphaeria nodorum; 250 ppm a.i.): 14% | Efficacy in % found (Leptosphaeria nodorum; 500 ppm a.i.): 14% | Efficacy in % found (Leptosphaeria nodorum; 1000 ppm a.i.): 14%
